Legend:
hpol η [1] = target: T1, hpol η (Homo sapiens, UniProt Q9Y253); experiment: Steady-state kinetic analysis of DNA polymerase activity; assay type: biochemical; conditions: for kcat: varying dTTP
T1 construct: human DNA polymerases η (amino acids 1-437); 6x-histidine (N, cleaved yes); GST (N, cleaved yes); made in house; host or cells: Escherichia coli BL21 (DE3)
T1 sequence (Q9Y253 1-437): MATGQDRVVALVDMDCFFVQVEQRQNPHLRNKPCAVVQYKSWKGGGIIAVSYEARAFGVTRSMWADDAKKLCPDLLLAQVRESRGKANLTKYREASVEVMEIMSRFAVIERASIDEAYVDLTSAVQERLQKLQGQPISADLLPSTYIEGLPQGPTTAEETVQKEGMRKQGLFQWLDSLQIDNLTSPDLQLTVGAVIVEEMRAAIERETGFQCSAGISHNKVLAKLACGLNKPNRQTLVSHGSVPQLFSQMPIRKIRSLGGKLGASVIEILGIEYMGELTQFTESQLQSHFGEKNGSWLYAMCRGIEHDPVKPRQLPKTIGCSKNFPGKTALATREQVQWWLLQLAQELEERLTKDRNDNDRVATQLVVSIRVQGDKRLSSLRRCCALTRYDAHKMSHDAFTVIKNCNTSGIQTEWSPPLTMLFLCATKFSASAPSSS
Protocol: The steady-state kinetic parameters defining polymerase activity in the presence of inhibitor were determined using the fluorescence-based reporter assay. Hpol q activity was monitored in the presence of increasing concentrations of dTTP (1, 5, 10, 20, 30, 50, 75, and 100 μM). The measured relative fluorescence units (RFUs) were converted to a nanomolar quantity by calculating the total change in fluorescence observed between the start of the reaction and the time point at which the fluorescence change was maximal, and considering that change to be 100% of substrate converted to product. The percentage of substrate converted to product was multiplied by the concentration of dsDNA in the reaction mixture. Product formation was then plotted as a function of time, and by considering only the linear portion of each curve, velocities were calculated for each dTTP concentration. These were then plotted as a function of dTTP concentration, and fit to a hyperbola. After correcting for enzyme concentration, the steady-state kinetic parameters were obtained as described previously. The experiments were then repeated in the presence of inhibitor (10, 20 and 40 μM) to determine the effect of the small-molecule upon Michaelis-Menten kinetics.
Next, the mechanism of polymerase inhibition by ITBA-3 was investigated. The Michaelis-Menten kinetic parameters describing hpol η activity were measured in the presence of increasing concentrations of inhibitor. By varying the concentration of dTTP in the reaction mixture, the turnover number (kcat) and Michaelis constant (Km,dTTP) for hpol η were determined in the absence of inhibitor and at three concentrations of ITBA-3 (Table 3).

hpol η [2] = target: T1, hpol η; experiment: Fluorescence-based DNA polymerase strand-displacement assay; assay type: biochemical
Excerpt: A library of 320 compounds targeted against nucleic acid interacting proteins was screened for inhibition of polymerase activity using an assay that monitors fluorescence from a 5-carboxytetramethylrhodamine (TAMRA) labeled oligonucleotide. In order to prepare the DNA for the experiment, a TAMRA-labeled reporter (or displaced) strand (SEQ ID NO. 4: 5′-TTT TTT TTG C-TAMRA-3′) and unlabeled primer strand (SEQ ID NO. 5: 5′-TCA CCC TCGTAC GAC TCT T-3′) were annealed to a Black Hole Quencher (BHQ)-labeled template strand (SEQ ID NO. 6: 5′BHQ2-GCAAAAAAAAAA GAG TCG TAC GAG GGT GA-3′) in a solution containing 10 mM Tris (pH 8.0), 50 mM NaCl, 2 mM MgCl2, and dH2O. The template (T), primer (P) and displaced strand (D) oligonucleotides were mixed in a 1:1.5:1.5 (T:P:D) molar ratio for annealing. After an incubation period of three minutes at 95° C., the DNA was allowed to slowly cool to room temperature overnight.
The fluorescence-based assay used to screen for polymerase inhibitors measures polymerase-catalyzed displacement of a TAMRA-labeled oligonucleotide (FIG. 1). For the initial screen, the experimental setup included 50 nM hpol η), 50 nM DNA, 6 μM compound, 100 μM dTTP and 1 mM MgCl2. The reactions were performed in 50 mM Tris (pH 8.0) buffer containing 40 mM NaCl, 2 mM dithiothreitol, and 0.01% (v/v) Tween-20. The concentration of dimethyl sulfoxide (DMSO) was 3.5% (v/v) for the initial screen. The enzyme, the compounds (including a DMSO control) and dTTP were combined with the reaction buffer in individual wells of each half-plate and allowed to incubate for 5-10 minutes. The DNA substrate was subsequently added to initiate the reaction and the plate was read immediately using a BioTek SynergyH4 plate reader (λex=525 nm, λem=598 run). The final reaction volume was 200 μL. Fluorescence was monitored for 90 minutes for most reactions. The initial portion of the velocity curve was analyzed by linear regression to calculate an observed rate of product formation. For each data set, eight DMSO control experiments were averaged to obtain our measure of 100% activity. Rates of product formation in the presence of each compound were then divided by the rate of the DMSO control to produce a relative measure of polymerase activity (0 to 1, with 1 being no inhibition).
(§1) In order to determine the IC50 value for each enzyme, the fluorescence-based polymerase assay was repeated with increasing concentrations of inhibitor. The conditions varied slightly for each enzyme. With the exception of hpol ι, all IC50 experiments were performed in 50 mM Tris HCl (pH 8.0) buffer containing 1 mM MgCl2, 0.1 mM dTTP, 40 mM NaCl, 2 mM DTT, 0.01% (v/v) Tween-20 and 10% (v/v) DMSO. For experiments with hpol ι, KCl was substituted for NaCl and 0.25 mM MnCl2 was substituted for MgCl2. The concentration of inhibitor was 0, 1, 5, 10, 20, 30, 50, 75 and 100 μM. The enzyme and DNA concentrations were as follows: 10 nM hpol η, 50 nM DNA; 3 nM hpol κ, 60 nM DNA; 50 nM hpol ι, 50 nM DNA; 10 nM Dpo4, 50 nM DNA; 100 nM Dpo1, 50 nM DNA; 50 nM hpol β, 50 nM DNA; 50 nM HIV-1 RT, 50 nM DNA. The percent activity was plotted as a function of the log of inhibitor concentration and fit to a four-parameter logistic model (equation 1) using Prism software (Graph Pad, San Diego, Calif.): […]

Dpo1 = target: T2, Dpo1 (Saccharolobus solfataricus, UniProt P26811); experiment: Fluorescence-based polymerase assay, IC50; assay type: biochemical, Sulfolobus solfataricus
T2 construct: made in house
Protocol: as §1

hpol η [3] = target: T1, hpol η; experiment: Gel-based polymerase extension assay; assay type: biochemical; conditions: 6 μM, 13 μM and 60 μM
Protocol: In order to provide a second measure of enzyme inhibition, polymerase extension assays were performed. Briefly, hpol η (2 nM) was pre-incubated with FAM-13/18-mer primer-template DNA ([…]) and either DMSO (final concentration=10%) or compound (6 μM, 13 μM and 60 μM; maintaining 10% DMSO for all experiments). Polymerase catalysis was initiated by the addition of dNTP (1 mM) and MgCl2 (5 mM). The reaction was allowed to proceed at 37° C. for varying times and then terminated by the addition of 5 μL aliquots of the reaction mix to 25 μL of the quench solution (20 mM EDTA, 95% (v/v) formamide and 0.1% (w/v) bromophenol blue). The samples were separated using a 16% polyacrylamide/7M urea gel and the products analyzed using a Typhoon imager and ImageQuant™ software (GE Healthcare Life Sciences).

hpol β = target: T3, hpol β (Homo sapiens, UniProt P06746); experiment: Fluorescence-based polymerase assay, IC50; assay type: biochemical
T3 construct: purchased Enzymax (Lexington, Ky.)
Protocol: as §1

T2 sequence (P26811 whole entry): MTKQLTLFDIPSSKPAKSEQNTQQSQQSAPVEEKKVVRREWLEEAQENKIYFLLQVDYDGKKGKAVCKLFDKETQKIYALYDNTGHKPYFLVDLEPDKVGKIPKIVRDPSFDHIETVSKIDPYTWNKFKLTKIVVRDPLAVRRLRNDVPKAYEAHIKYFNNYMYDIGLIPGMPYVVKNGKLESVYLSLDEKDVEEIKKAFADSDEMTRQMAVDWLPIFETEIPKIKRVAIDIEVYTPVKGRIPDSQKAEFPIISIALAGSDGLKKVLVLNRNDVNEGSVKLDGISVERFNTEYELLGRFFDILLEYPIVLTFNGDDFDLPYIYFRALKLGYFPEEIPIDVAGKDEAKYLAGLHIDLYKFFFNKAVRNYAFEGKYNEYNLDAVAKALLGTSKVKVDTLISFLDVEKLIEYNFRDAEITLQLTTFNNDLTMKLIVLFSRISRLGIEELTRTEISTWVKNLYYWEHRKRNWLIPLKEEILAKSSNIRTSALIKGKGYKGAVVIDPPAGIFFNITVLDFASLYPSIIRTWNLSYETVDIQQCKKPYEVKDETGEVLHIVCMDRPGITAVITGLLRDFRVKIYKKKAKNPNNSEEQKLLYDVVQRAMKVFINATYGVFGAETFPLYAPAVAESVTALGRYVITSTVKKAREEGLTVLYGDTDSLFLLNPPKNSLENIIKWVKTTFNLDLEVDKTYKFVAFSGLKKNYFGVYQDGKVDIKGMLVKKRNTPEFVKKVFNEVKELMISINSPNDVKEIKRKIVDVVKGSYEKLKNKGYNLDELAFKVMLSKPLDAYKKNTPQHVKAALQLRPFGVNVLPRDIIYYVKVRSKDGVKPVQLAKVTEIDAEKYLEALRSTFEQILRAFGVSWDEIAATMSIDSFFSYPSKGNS

## O=C1NC(=S)NC(=O)C1=Cc1cn(C(=O)c2ccccc2Br)c2ccc(Cl)cc12 [ITBA-3, 5-((1-(2-bromobenzoyl)-5-chloro-1H-indol-3-yl)methylene)-2-thioxodihydropyimidine-4,6-(1H,5H)-dione]
Hpol η [1]; 10 μM inhibitor
  kcat: 0.04 ± 0.0017 s⁻¹
Hpol η [1]; 20 μM inhibitor
  kcat: 0.05 ± 0.005 s⁻¹
Hpol η [1]; 40 μM inhibitor
  kcat: 0.0517 ± 0.0033 s⁻¹
Hpol η [1]; with respect to dTTP
  mode of inhibition: competitive
Hpol η [2]; 10 nM hpol η, 50 nM DNA, mean ± standard deviation of three data sets, read-out: IC50 for inhibition of hpol η
  IC50: 29.8 ± 2.7 µM
Hpol η [2]; 6 μM, 13 μM and 20 μM
  polymerase activity at increasing concentrations of inhibitor, fluorescence assay: dose-dependent decrease in polymerase activity
Hpol η [2]; 50 μM compound
  hpol η percent activity relative to the control assay: dramatic improvement in activity
Dpo1
  IC50: ~80 µM
Hpol η [3]
  polymerase activity at increasing concentrations of inhibitor, gel-based analysis: dose-dependent decrease in polymerase activity
Hpol β
  IC50: < 50 µM
